In patent publication US20140155321A1, “Polypeptides and Their Use” (Novabiotics Limited, priority 2012, published 2014):
Where two headings read alike, the source gives them in different places.

Tests used:
[1] = test system: Malassezia pachydermatis (CBS6536); conditions: for positive skin cultures / approximate number of cfu from skin biopsies, Group ave.: 10 d post-infection, 5% (w/v) NP108 or 2% (w/v) miconazole topical; for approximate number of cfu from skin biopsies, Group ave.: 3 days incubation; for Group ave. Day+10 clinical score: topical once a day for 6 d from 48 h post-infection, 5% (w/v) NP108 or 2% (w/v) miconazole, score 3.0 = significant crusting/erythema
Procedure: Determination of the Efficacy of NP108 Against Malassezia pachydermatis (CBS6536) in a Murine Model of Localised Dermatophyte Skin Infection (10 Days Post-Infection)
In this Malassezia spp. skin infection study, 30 male CD1 mice (10 per treatment group) were scored daily for 10 d post-infection based on the clinical observations of the infected area. Mice were treated with test article, 5% (w/v) NP108, 2% (w/v) miconazole or vehicle commencing 48 h post-infection for 6 d. Groups of 10 mice were euthanized for culture of skin tissue 10 d post-infection. Skin samples were dissected into 10 pieces per mouse and each piece streaked onto Modified Leeming Notman agar (MLNA) for culture at 30° C. for up to 7 d. Data from these samples has been recorded as number positive for Malassezia pachydermatis CBS6536 growth per mouse and approximate number of quantifiable cfu per streaked sample; plates were read after 3 d and 7 d incubation. Test article NP108 was supplied as a 5% (w/v) dosing preparation in 65% PEG14000, supplied ready to administer without any reconstitution or dilution required, as was vehicle preparation also.

M. furfur DSMZ6170 [2] = conditions: 0.4 mg/ml zinc pyrithione, under in vitro conditions (not in conditioner)
M. furfur DSMZ6170 [3] = experiment: Antifungal efficacy in conditioner vehicles, surviving colony count; type: cell-based, Malassezia furfur; conditions: for killing of M. furfur: 60 min exposure
Procedure: The antifungal efficacy of NP108 was tested in a conditioner vehicle. The following materials were tested: • 1. 10% (v/v) Head & Shoulders conditioner (anti-dandruff conditioner) • 2. 10% (v/v) Pantene conditioner (“normal” conditioner) • 3. 10% (v/v) Pantene conditioner (“normal” conditioner)+4% (w/v) NP 108 • 4. Phosphate Buffered Saline (PBS)
All yeast inocula for this experiment were prepared to the 0.5 McFarland Standard. 400 μl of yeast inoculum was exposed to 100 μl of the materials described above for 1 h at 37° C., followed by washing to remove all traces of the materials. Serial dilutions of the yeasts were prepared (10^0-10^−5; 10-fold dilutions) and 100 μl was spread on Modified Christensen's Medium and incubated at 30° C. for 48 h and numbers of surviving colonies counted. All experiments were carried out in triplicate.
(§1) In a further experiment, the effect of incubation time on killing of Malassezia spp. was investigated. The following materials were tested: • 1. 0.04% (w/v) Zinc Pyrithione in 19.2% (v/v) Head &Shoulders conditioner • 2. 1.0% (w/v) NP108 in 19.2% (v/v) Head & Shoulders conditioner • 3. 19.2% (v/v) Head & Shoulders conditioner
(§2) All yeast inocula for this experiment were prepared to the 0.5 McFarland Standard. […] of yeast inoculum was exposed to 100 μl of the materials described above and incubated at 30° C. for 0, 3, 10, 30 or 60 min, followed by washing to remove all traces of the materials. Serial dilutions of the yeasts were prepared (10^0-10^−5; 10-fold dilutions) and 100 μl was spread on Modified Christensen's Medium and incubated at 30° C. for 48 h and numbers of surviving colonies counted. All experiments were carried out in triplicate.
In the following experiment, all samples of M. furfur DSMZ6170 (0.5 McFarland Standard) were exposed to 10% (v/v) H & S Conditioner, containing 10.0 (1.0%) mg/ml NP108 or 0.4 mg/ml zinc pyrithione (the active ingredient in H & S shampoo). The control samples were exposed to 10% (v/v) H & S Conditioner. The negative control samples were exposed to water alone (data not shown).
In the following experiment, all samples of M. furfur DSMZ6170 (0.5 McFarland Standard) were exposed to 10% (v/v) H & S Conditioner or 10% (v/v) Pantene Conditioner and a further treatment of 40 mg/ml NP108 (4.0%) in 10% (v/v) Pantene Conditioner. The control sample was exposed to PBS alone. All incubations were carried out for 60 min.

M. furfur DSMZ6170 [4] = experiment: MIC by modified CLSI M27-A3 broth dilution versus M. furfur DSMZ6170; type: cell-based, Malassezia furfur
Procedure: (§3) The minimum inhibitory concentration (MIC) of all materials was determined according to methods described in the Clinical and laboratory Standards institute Approved Standard “Reference Method for Broth Dilution Antifungal Susceptibility Testing of Yeasts—Third Edition (M27-A3)” with the following modifications. In place of RPMI-1640 liquid medium, Modified Christensen's Medium, without the addition of agar, was used.

[5] = test system: human dermal fibroblast (BJ) cells; experiment: Cytotoxicity versus human dermal fibroblast (BJ) cells; type: cell-based; conditions: BJ fibroblasts
Procedure: (§4) Haematotoxicity versus 10% human red blood cells and cyctotoxicity versus human dermal fibroblast (BJ) cells and human lung epithelial (A549) cells was determined by standard in vitro procedures known to those skilled in the art (Table 1 and FIG. 1).

[6] = test system: M. pachydermatis NCPF3667; experiment: MIC by modified CLSI M27-A3 broth dilution versus M. pachydermatis NCPF3667; type: cell-based, Malassezia pachydermatis; conditions: Table 2
Procedure: as §3

M. furfur DSMZ6170 [7] = experiment: Antifungal efficacy in a shampoo vehicle, surviving colony count; type: cell-based, Malassezia furfur; conditions: 40 mg/ml NP108 in 10% (v/v) Pantene shampoo; 60 min exposure; FIG. 5
Procedure: The antifungal efficacy of NP108 was tested in a shampoo vehicle. The following materials were tested: • 1. 10% (v/v) Head & Shoulders shampoo (anti-dandruff shampoo) • 2. 10% (v/v) Pantene shampoo (“normal” shampoo) • 3. 10% (v/v) Pantene shampoo (“normal” shampoo)+4% (w/v) NP108 • 4. Phosphate Buffered Saline (PBS)
All yeast inocula for this experiment were prepared to the 0.5 McFarland Standard. 400 μl of yeast inoculum was exposed to 100 μl of the materials described above for 1 h at 37° C., followed by washing to remove all traces of the materials. Serial dilutions of the yeast inocula were prepared (10^0-10^−5; 10-fold dilutions) and 100 μl was spread on Modified Christensen's Medium and incubated at 30° C. for 48 h and numbers of surviving colonies counted. All experiments were carried out in triplicate.
In the following experiment, all samples of M. furfur DSMZ6170 (0.5 McFarland Standard) were exposed to 10% (v/v) Head & Shoulders (H & S) Shampoo, 10% (v/v) Pantene Shampoo and 10% (v/v) Pantene Shampoo containing 40.0 (4.0%) mg/ml NP108. The negative control samples were exposed to phosphate-buffered saline (PBS) alone. H & S Shampoo contains zinc pyrithione (˜1%) as an antifungal agent proven to kill Malassezia spp.

M. pachydermatis CBS6536 [8] = experiment: Antifungal efficacy in Head & Shoulders conditioner, surviving colony count; type: cell-based, Malassezia pachydermatis; conditions: FIG. 6
Procedure: as §1, §2
In the following experiment, all samples of M. pachydermatis CBS6536 (0.5 McFarland Standard) were exposed to 10% (v/v) Head & Shoulders (H & S) Conditioner, containing 0 (0%), 1.0 (0.1%) or 10.0 (1.0%) mg/ml NP108. The positive control samples were exposed to 10% (v/v) Head & Shoulders Conditioner. The negative control samples were exposed to water alone.

M. pachydermatis CBS6536 [9] = experiment: MIC by modified CLSI M27-A3 broth dilution versus M. pachydermatis CBS6536; type: cell-based, Malassezia pachydermatis
Procedure: as §3

human red blood cells = experiment: Haematotoxicity (haemolysis) versus 10% human red blood cells; type: cell-based
Procedure: as §4

[10] = Table 1, 1×10^6-5×10^6 cells/ml, Modified Christensen's Medium
[11] = Table 2, M. pachydermatis CBS6536

With Clc1ccc(COC(Cn2ccnc2)c2ccc(Cl)cc2Cl)c(Cl)c1 (centres unmarked) [miconazole, reference compound] the positive skin cultures [1] was 100%, the “approximate number of cfu from skin biopsies, Group ave.” value [1] was 131.4 cfu/mouse and the “Group ave. Day+10 clinical score” value [1] was 1.31.
In the case of zinc pyrithione [reference compound], the “killing of M. furfur” value (M. furfur DSMZ6170 [2]) is reported as “sufficient to kill” and the antifungal activity (M. furfur DSMZ6170 [3]; 0.4 mg/ml zinc pyrithione in H & S conditioner, FIG. 7) is reported as “no antifungal activity”.
Poly-L-Lysine [NP108] was tested, and the “MIC50 Median” value (M. furfur DSMZ6170 [4]; Table 2) was 250 µg/mL, the “MIC80 Median” value (M. furfur DSMZ6170 [4]; Table 2) was 1000 µg/mL and the “MIC80 Range” value (M. furfur DSMZ6170 [4]; Table 2) was 500 to 2000 µg/mL. The “MIC100 Median” value (M. furfur DSMZ6170 [4]; Table 2) was 2000 µg/mL, the “MIC100 Range” value (M. furfur DSMZ6170 [4]; Table 2) was 2000 to 4000 µg/mL and the “MIC50 Range” value (M. furfur DSMZ6170 [4]; Table 2, three independent experiments) was 125 to 500 µg/mL. For the same molecule, the “Cytotoxicity (BJ; LD50)” value [5] was 4,500 μg/ml, the tolerability of treatment ([1]; 5% (w/v) NP108 in 65% PEG14000, topical, throughout the study) was “well tolerated” and the positive skin cultures [1] was 84%. The “approximate number of cfu from skin biopsies, Group ave.” value [1] was 34.6 cfu/mouse, the “Group ave. Day+10 clinical score” value [1] was 0.65 and the “MIC50 Median” value [6] was 15.6 µg/mL. The “MIC80 Median” value [6] was 15.6 to 31.3 µg/mL, the “MIC100 Median” value [6] was 31.3 µg/mL and the “killing of M. furfur (surviving cfu/ml)” value (M. furfur DSMZ6170 [7]) was “kills”. The “killing of M. furfur” value (M. furfur DSMZ6170 [3]; 10 mg/ml NP108 (1.0%) in H & S conditioner, FIG. 7) was “Complete killing”, the antifungal activity (M. furfur DSMZ6170 [3]; 10 mg/ml NP108 (1.0%) in H & S conditioner, after as little as 3 min exposure, time-dependent increase, FIG. 7) was “demonstrates antifungal activity” and the “killing of M. furfur” value (M. furfur DSMZ6170 [3]; 40 mg/ml NP108 (4.0%) in 10% (v/v) Pantene conditioner, FIG. 8) was “completely killing”. The antifungal activity (M. pachydermatis CBS6536 [8]; 1 mg/ml NP108 (0.1%) in H & S conditioner) was “no antifungal activity”, the “killing of M. pachydermatis” value (M. pachydermatis CBS6536 [8]; 10 mg/ml NP108 (1.0%) in H & S conditioner, after as little as 3 min exposure) was “kills” and the MIC50 (M. pachydermatis CBS6536 [9]; [10]) was 62.5 to 125 µg/mL. For the same molecule, the MIC80 (M. pachydermatis CBS6536 [9]; [10]) was 62.5 to 125 µg/mL, the MIC100 (M. pachydermatis CBS6536 [9]; [10]) was 125 µg/mL and the “MIC50 Median” value (M. pachydermatis CBS6536 [9]; [11]) was 31.25 µg/mL. For the same molecule, the “MIC80 Median” value (M. pachydermatis CBS6536 [9]; [11]) was 62.5 µg/mL, the “MIC80 Range” value (M. pachydermatis CBS6536 [9]; [11]) was 31.25 to 125 µg/mL and the “MIC100 Median” value (M. pachydermatis CBS6536 [9]; [11]) was 62.5 µg/mL. The “MIC100 Range” value (M. pachydermatis CBS6536 [9]; [11]) was 31.25 to 125 µg/mL, the “MIC50 Range” value (M. pachydermatis CBS6536 [9]; Table 2, M. pachydermatis CBS6536, three independent experiments) was 15.63 to 31.25 µg/mL and the “Haemolysis (LD50)” value (human red blood cells) was >10,000 μg/ml.
